The values below are quoted from earlier work in patent publication US20250000794A1, “IMPROVED DRUG PROCESSING METHODS TO INCREASE DRUG LOADING” (BOARD OF REGENTS, THE UNIVERSITY OF TEXAS SYSTEM, priority 2021, published 2025).

For the series the following is noted: water.

As to `NCCCC[C@H](N)C(=O)O` [L-lysine], the “Solubility (g/100 mL) Room Temperature” value was 150 g/100 mL.
